Where a SMILES comes first, the peptide text is derived from it. [ ]: non-standard residue; d: D form. pGlu = O=C1CC[C@@H](C(=O)O)N1; Thz = O=C(O)[C@@H]1CSCN1
What was measured:
Androgen receptor [1] = target: T1, Androgen receptor (Rattus norvegicus, UniProt P15207); type: functional
T1 sequence (P15207 whole entry): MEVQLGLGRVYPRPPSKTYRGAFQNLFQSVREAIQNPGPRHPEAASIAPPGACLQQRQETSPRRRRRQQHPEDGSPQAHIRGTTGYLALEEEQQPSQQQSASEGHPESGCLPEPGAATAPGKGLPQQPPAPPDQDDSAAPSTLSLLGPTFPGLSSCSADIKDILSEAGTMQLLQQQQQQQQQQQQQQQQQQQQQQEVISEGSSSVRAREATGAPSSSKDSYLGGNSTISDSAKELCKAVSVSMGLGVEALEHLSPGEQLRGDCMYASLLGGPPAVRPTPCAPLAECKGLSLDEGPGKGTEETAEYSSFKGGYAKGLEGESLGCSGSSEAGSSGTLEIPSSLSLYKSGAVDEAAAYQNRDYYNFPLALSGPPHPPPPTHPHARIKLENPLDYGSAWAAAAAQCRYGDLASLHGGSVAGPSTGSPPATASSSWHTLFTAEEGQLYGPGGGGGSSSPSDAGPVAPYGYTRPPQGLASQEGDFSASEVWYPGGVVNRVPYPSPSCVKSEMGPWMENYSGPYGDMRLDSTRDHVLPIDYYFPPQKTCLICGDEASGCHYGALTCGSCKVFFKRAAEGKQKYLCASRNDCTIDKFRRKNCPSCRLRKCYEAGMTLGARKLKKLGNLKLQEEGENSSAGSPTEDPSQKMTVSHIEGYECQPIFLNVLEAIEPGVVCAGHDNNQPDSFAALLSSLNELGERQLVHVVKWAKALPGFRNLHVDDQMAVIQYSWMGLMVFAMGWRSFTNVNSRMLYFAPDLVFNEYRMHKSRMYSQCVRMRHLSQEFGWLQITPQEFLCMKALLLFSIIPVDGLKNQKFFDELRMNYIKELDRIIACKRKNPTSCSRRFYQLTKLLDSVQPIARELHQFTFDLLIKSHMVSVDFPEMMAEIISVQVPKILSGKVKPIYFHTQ

Androgen receptor [2] = target: T1, Androgen receptor; type: functional; remark: listed apart in the source
Androgen receptor [3] = target: T1, Androgen receptor
Progesterone receptor = target: T2, Progesterone receptor (Homo sapiens, UniProt P06401)
T2 sequence (P06401 whole entry): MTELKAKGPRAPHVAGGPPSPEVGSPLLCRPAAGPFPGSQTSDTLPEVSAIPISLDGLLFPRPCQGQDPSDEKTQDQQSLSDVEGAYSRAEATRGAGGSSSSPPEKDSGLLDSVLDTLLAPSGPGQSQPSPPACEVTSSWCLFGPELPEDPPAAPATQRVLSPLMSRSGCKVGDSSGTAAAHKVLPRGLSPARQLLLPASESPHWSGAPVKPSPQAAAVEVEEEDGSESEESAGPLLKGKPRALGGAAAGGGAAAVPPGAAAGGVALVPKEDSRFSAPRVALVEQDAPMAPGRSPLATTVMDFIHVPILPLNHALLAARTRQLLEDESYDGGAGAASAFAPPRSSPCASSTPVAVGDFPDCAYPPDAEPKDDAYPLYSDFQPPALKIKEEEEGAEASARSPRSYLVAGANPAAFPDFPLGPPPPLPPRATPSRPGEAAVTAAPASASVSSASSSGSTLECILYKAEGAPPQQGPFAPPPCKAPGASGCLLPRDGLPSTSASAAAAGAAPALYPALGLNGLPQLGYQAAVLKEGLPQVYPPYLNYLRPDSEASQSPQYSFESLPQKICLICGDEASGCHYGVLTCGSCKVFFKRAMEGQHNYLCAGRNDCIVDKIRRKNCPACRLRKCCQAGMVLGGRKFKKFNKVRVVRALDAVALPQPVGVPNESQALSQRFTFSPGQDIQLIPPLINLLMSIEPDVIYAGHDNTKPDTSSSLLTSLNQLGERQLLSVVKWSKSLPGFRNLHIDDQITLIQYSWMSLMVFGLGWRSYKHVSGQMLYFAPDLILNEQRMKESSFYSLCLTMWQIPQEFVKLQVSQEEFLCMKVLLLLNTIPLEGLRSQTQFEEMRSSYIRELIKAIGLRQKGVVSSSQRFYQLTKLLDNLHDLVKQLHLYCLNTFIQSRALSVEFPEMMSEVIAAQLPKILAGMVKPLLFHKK

[4] = target: T3, 5-hydroxytryptamine receptor 1A (Homo sapiens, UniProt P08908)
T3 sequence (P08908 whole entry): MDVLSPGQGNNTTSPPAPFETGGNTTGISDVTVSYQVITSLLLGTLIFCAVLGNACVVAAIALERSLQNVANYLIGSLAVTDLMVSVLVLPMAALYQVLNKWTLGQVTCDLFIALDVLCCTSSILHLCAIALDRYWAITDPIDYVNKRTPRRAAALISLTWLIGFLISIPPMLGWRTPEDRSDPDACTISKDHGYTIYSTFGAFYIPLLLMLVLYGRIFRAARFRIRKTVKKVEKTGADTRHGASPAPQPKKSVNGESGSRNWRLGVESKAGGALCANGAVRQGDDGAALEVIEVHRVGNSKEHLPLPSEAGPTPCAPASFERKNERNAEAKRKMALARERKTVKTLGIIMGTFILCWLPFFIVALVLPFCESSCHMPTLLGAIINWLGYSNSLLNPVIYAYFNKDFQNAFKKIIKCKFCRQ

[5] = target: T4, Endothelin receptor type B (Homo sapiens, UniProt P24530)
T4 sequence (P24530 whole entry): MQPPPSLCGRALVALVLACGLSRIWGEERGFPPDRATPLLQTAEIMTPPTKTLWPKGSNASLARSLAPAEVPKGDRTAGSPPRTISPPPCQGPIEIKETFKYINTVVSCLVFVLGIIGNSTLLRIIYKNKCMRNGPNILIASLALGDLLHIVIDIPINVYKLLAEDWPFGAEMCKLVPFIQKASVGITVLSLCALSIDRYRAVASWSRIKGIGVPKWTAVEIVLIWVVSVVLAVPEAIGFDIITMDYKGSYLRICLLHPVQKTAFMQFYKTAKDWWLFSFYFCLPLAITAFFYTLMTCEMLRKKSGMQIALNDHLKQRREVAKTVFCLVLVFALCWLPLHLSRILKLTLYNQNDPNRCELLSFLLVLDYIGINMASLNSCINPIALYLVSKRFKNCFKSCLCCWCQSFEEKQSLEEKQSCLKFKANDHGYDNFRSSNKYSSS
Further: assay procedure not described here.

SMILES	AC50 (Androgen receptor [1])	AC50 (Androgen receptor [2])	AC50 (Androgen receptor [3])	AC50 (Progesterone receptor)	AC50 [4]	AC50 [5]
CC(C)N(CCCCOCC(=O)O)c1cnc(-c2ccccc2)c(-c2ccccc2)n1	> 30 µM	19 µM	–	–	–	–
CC(=O)c1ccc(S(=O)(=O)NC(=O)NC2CCCCC2)cc1 [ACETOHEXAMIDE]	–	–	> 10 µM	–	–	–
COc1cc(C)c(/C=C/C(C)=C/C=C/C(C)=C/C(=O)O)c(C)c1C [ACITRETIN]	–	–	4.6 µM	–	–	–
CCC1(CCC(C)C)C(=O)NC(=O)NC1=O [AMOBARBITAL]	–	–	> 10 µM	–	–	–
Cc1cc(=O)n(-c2ccccc2)n1C [ANTIPYRINE]	–	–	> 30 µM	> 30 µM	> 10 µM	–
O=C(O)c1ccc(NC(=O)[C@H](Cc2ccc(O)cc2)NC(=O)c2ccccc2)cc1 [BENTIROMIDE]	–	–	> 10 µM	–	–	–
Clc1ccc(CCC(Cn2ccnc2)Sc2c(Cl)cccc2Cl)cc1 (centres undefined) [BUTOCONAZOLE]	> 30 µM	9.2 µM	–	–	–	–
COc1cc(N)c(Cl)cc1C(=O)NC1CCN(CCCOc2ccc(F)cc2)CC1OC (centres undefined) [CISAPRIDE]	–	–	–	> 30 µM	> 10 µM	> 30 µM
CC(CN(C)C)C(C)(O)Cc1ccc(Cl)cc1 (centres undefined) [CLOBUTINOL]	–	–	> 30 µM	–	–	–
CCOC(=O)C(C)(C)Oc1ccc(Cl)cc1 [CLOFIBRATE]	–	–	–	> 30 µM	> 10 µM	> 30 µM
CCCCOc1ccc(C(=O)CCN2CCCCC2)cc1 [DYCLONINE]	–	–	–	> 30 µM	> 10 µM	> 30 µM
CC(C)NC[C@H](O)COc1ccc(CC(N)=O)cc1 [ESATENOLOL]	–	–	–	> 30 µM	> 10 µM	> 30 µM
CCOC(=O)c1ncn2c1CN(C)C(=O)c1cc(F)ccc1-2 [FLUMAZENIL]	> 30 µM	> 30 µM	> 10 µM	–	–	–
CC/C=C\C/C=C\C/C=C\C/C=C\C/C=C\CCCC(=O)OCC [ICOSAPENT ETHYL]	> 30 µM	23 µM	–	–	–	–
NNC(=O)c1ccncc1 [ISONIAZID]	–	–	–	> 30 µM	> 10 µM	> 30 µM
O=C1Nc2ccc(Cl)cc2C(c2ccccc2Cl)=NC1O (centres undefined) [LORAZEPAM]	–	–	> 30 µM	26.2 µM	> 10 µM	> 30 µM
CC(=O)[C@H]1CC[C@H]2[C@@H]3C[C@H](C)C4=CC(=O)CC[C@]4(C)[C@H]3[C@@H](O)C[C@]12C [MEDRYSONE]	–	–	0.257 µM	–	–	–
Cc1ccnc2c1NC(=O)c1cccnc1N2C1CC1 [NEVIRAPINE]	–	–	–	> 30 µM	> 10 µM	> 30 µM

SMILES	AC50 (Androgen receptor [1])	AC50 (Androgen receptor [2])	AC50 (Androgen receptor [3])	AC50 (Progesterone receptor)	AC50 [4]	AC50 [5]
O=C(c1cc(Cc2n[nH]c(=O)c3ccccc23)ccc1F)N1CCN(C(=O)C2CC2)CC1 [OLAPARIB]	–	–	> 30 µM	–	–	–
Fc1ccc([C@@H]2CCNC[C@H]2COc2ccc3c(c2)OCO3)cc1 [PAROXETINE]	–	–	> 30 µM	> 30 µM	> 10 µM	> 30 µM
c1ccc(C2(N3CCCCC3)CCCCC2)cc1 [PHENCYCLIDINE]	> 30 µM	> 30 µM	–	–	–	–
OC[C@H]1O[C@@H](Oc2cc(O)cc(/C=C/c3ccc(O)cc3)c2)[C@H](O)[C@@H](O)[C@@H]1O [PICEID]	> 30 µM	> 30 µM	–	–	–	–
O=C1CC[C@@H](C(=O)N2CSC[C@H]2C(=O)O)N1 [PIDOTIMOD] ([pGlu]-[Thz]-OH)	> 30 µM	> 30 µM	–	–	–	–
COc1cc(C(=O)OCc2cccc(COC(=O)c3cc(OC)c(OC)c(OC)c3)n2)cc(OC)c1OC [PIROZADIL]	> 30 µM	> 30 µM	–	–	–	–
CCCN(CCC)S(=O)(=O)c1ccc(C(=O)O)cc1 [PROBENECID]	–	–	> 10 µM	–	–	–
CCC(NC(C)C)C(O)c1ccc(O)c2[nH]c(=O)ccc12 (centres undefined) [PROCATEROL]	> 30 µM	> 30 µM	–	–	–	–
CCC(=O)O[C@](Cc1ccccc1)(c1ccccc1)[C@H](C)CN(C)C [PROPOXYPHENE]	–	–	–	> 30 µM	> 10 µM	> 30 µM
CCc1nc(N)nc(N)c1-c1ccc(Cl)cc1 [PYRIMETHAMINE]	–	–	–	–	> 10 µM	–
O=c1c(O)c(-c2ccc(O)c(O)c2)oc2cc(O)cc(O)c12 [QUERCETIN]	–	–	–	14.1 µM	> 10 µM	> 30 µM
CCN1CCCC1CNC(=O)c1cc(S(=O)(=O)CC)ccc1OC (centres undefined) [SULTOPRIDE]	> 30 µM	> 30 µM	–	–	–	–
C=CCN1CCc2nc(N)sc2CC1 [TALIPEXOLE]	> 30 µM	> 30 µM	–	–	–	–
CCOC(=O)c1ccc(C#Cc2ccc3c(c2)C(C)(C)CCS3)nc1 [TAZAROTENE]	–	–	–	> 30 µM	> 10 µM	–
CCOC(=O)[C@@H](N)Cc1ccc(-c2cc(O[C@H](c3ccc(Cl)cc3-n3ccc(C)n3)C(F)(F)F)nc(N)n2)cc1 [TELOTRISTAT ETHYL]	> 30 µM	> 30 µM	–	–	–	–
CC(C(=O)O)c1ccc2c(c1)CC(=O)c1ccccc1S2 (centres undefined) [ZALTOPROFEN]	> 30 µM	> 30 µM	–	–	–	–
CC(c1cc2ccccc2s1)N(O)C(N)=O (centres undefined) [ZILEUTON]	–	–	> 30 µM	–	–	–

Reference: ChEMBL document CHEMBL5291721, “A preclinical secondary pharmacology resource illuminates target-adverse drug reaction associations of marketed drugs” (Nat Commun, 2023)
